From ChEMBL document CHEMBL1201862, “PubChem BioAssay data set” (2004) come the findings set out here.

The source made the active and inactive calls. Some results are limits rather than exact numbers.

In test [1] the target is MAP kinase-activated protein kinase 2 (Homo sapiens, UniProt P49137). Type of test: functional.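 Further: measured as one member of a kinome-wide kinase panel.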
The next test deals with Misshapen-like kinase 1 (Homo sapiens, UniProt Q8N4C8). Type of test: functional.
Test [2] has as its target Serine/threonine-protein kinase pim-3 (Homo sapiens, UniProt Q86V86). Type of test: functional.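 Further: value obtained as one member of a broad kinase panel profiling effort.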
Test [3] has as its target Mitogen-activated protein kinase kinase kinase kinase 4 (Homo sapiens, UniProt O95819). Type of test: functional.
The target in another test is Cytochrome P450 3A4 (Homo sapiens, UniProt P08684). The note with it: Potency.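 Further: confirmatory qHTS run detecting inhibitors and substrates of CYP3A4.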
Test [4] addresses T1, Botulinum neurotoxin type A (Clostridium botulinum (strain Hall / ATCC 3502 / NCTC 13319 / Type A), UniProt P0DPI1). As to the kind of experiment: High-throughput multiplex microsphere dose response for inhibitors of toxin protease, specifically Botulinum neurotoxin light chain A protease, compounds from Cherry Pick 01. Type of test: functional. The note with it: read-out: EC50_MICROM.

Test [5] addresses T1, Botulinum neurotoxin type A. The test can be described thus: Confirmatory FRET assay using full length substrates for Botulinum neurotoxin light chain A protease, with Powder Set01. Type of test: functional.
The next test concerns the target Lethal factor (Bacillus anthracis, UniProt P15917). The test can be described thus: High-throughput multiplex microsphere dose response for inhibitors of toxin protease, specifically Lethal Factor protease, compounds from Powder Set 01. Type of test: functional, Bacillus anthracis str. A2012. Particulars: read-out: EC50_MICROM.
The target in test [6] is T1, Botulinum neurotoxin type A. As to the kind of experiment: High-throughput multiplex microsphere dose response for inhibitors of toxin protease, specifically Botulinum neurotoxin light chain A protease, compounds from Powder Set 01. Type of test: functional, Clostridium botulinum A str. ATCC 3502. Particulars: read-out: EC50_MICROM.
In test [7] the target is T2, Rac GTPase-activating protein 1 (Homo sapiens, UniProt Q9H0H5).
T2 sequence (Q9H0H5 whole entry): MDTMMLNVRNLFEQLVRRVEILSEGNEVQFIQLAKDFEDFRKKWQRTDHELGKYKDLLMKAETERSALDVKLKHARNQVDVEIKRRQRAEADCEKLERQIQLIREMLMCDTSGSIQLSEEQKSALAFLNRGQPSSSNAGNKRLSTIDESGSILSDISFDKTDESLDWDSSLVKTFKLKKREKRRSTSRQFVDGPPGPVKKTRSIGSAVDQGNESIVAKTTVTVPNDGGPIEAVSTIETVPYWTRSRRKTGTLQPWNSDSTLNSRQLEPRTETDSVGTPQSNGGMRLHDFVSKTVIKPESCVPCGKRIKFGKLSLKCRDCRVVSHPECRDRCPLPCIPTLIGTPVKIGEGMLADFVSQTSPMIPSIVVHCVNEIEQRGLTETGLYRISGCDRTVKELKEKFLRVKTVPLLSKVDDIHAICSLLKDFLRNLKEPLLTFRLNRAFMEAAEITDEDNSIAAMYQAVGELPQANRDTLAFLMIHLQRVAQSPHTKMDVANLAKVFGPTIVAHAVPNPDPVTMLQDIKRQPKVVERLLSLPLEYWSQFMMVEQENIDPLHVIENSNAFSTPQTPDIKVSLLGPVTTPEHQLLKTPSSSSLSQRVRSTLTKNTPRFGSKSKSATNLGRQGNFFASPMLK
As to the kind of experiment: blockers of MgcRacGAP-driven Rac1 GTP hydrolysis – biochemical, ADP Hunter fluorescence, primary and confirmatory, confirmation (AID 624330). Type of test: functional.

Test [8] concerns the target T3, Insulin-degrading enzyme (Homo sapiens, UniProt P14735).
T3 sequence (P14735 whole entry): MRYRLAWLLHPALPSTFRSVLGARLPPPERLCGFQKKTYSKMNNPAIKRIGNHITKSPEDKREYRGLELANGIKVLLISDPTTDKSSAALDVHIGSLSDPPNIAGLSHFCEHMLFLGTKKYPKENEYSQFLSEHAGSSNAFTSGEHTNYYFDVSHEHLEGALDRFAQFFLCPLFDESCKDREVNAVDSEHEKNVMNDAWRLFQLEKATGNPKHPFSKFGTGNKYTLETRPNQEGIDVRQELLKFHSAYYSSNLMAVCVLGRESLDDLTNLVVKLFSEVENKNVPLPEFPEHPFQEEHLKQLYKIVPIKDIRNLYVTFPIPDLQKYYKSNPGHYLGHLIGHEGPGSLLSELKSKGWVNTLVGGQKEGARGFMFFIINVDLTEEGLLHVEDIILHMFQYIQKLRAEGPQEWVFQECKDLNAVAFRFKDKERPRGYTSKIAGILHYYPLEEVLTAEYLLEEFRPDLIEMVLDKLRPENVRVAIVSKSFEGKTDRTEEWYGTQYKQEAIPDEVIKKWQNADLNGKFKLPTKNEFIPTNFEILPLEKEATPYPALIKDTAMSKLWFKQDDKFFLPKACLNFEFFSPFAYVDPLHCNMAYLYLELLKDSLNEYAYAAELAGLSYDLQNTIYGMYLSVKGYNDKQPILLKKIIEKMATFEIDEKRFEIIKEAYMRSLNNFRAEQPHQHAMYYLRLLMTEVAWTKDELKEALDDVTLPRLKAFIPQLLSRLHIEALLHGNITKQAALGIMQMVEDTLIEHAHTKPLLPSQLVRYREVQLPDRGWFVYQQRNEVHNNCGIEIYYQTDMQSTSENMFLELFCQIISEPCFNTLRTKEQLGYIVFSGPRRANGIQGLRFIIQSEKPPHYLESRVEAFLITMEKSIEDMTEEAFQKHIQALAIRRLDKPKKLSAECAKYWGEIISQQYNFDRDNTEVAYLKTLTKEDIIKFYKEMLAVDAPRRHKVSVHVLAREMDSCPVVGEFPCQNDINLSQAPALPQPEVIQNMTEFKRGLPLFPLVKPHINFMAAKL
The test can be described thus: cellular IDE activation of Abeta substrate cleavage – fluorescence polarization, HEK cells, dose response (AID 588439). Type of test: functional, cell-based. A general note: Fluorescence polarisation rises when a labelled molecule tumbles more slowly, as on binding a larger partner.

Test [9] has as its target T3, Insulin-degrading enzyme. As to the kind of experiment: recombinant IDE activation, cell-free – biochemical, fluorescence polarization, counter-screen for IDE activator project, dose response (AID 588681).
The subject of the next test is HEK293. As to the kind of experiment: membrane integrity loss in HEK cells – cell-based, fluorescence, cytotoxicity control for IDE activator project, dose response (AID 588440).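 Further: cytotoxicity by LDH release measuring loss of membrane integrity.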 Type of test: functional. The note with it: Homo sapiens.
For a further test, the system named is HeLa. As to the kind of experiment: viability loss in HeLa cells – cell-based, 24 h, cherry-picked samples, cytotoxicity control, dose response (AID 504726).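 Further: potency for cytotoxicity as loss of luminescence signal.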 Type of test: functional, Homo sapiens.
The target in test [10] is T4, Tyrosyl-DNA phosphodiesterase 2 (Homo sapiens, UniProt O95551).
T4 sequence (O95551 whole entry): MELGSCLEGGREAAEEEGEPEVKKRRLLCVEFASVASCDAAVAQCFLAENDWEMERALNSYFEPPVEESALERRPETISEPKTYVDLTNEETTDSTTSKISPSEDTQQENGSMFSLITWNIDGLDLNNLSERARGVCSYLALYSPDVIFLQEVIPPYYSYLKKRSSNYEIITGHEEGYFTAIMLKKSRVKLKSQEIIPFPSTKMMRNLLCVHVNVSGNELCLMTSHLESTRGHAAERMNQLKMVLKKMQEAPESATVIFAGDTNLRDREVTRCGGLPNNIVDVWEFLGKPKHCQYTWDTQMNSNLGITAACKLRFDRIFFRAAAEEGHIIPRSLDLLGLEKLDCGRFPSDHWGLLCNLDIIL
As to the kind of experiment: potency against TDP2 phosphodiesterase activity – biochemical, epi absorbance, IC50, dose response (AID 743297).

A further test concerns the target ORF 73 (Human herpesvirus 8, UniProt O40947). As to the kind of experiment: KSHV LANA DNA-binding disruption – biochemical, fluorescence polarization, cherry-picked samples, dose response (AID 504725).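 Further: fluorescence polarization of a labeled DNA duplex reporting LANA DNA binding; potency is for inhibitors that block LANA binding to the DNA.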 Also on record: species or system Human gammaherpesvirus 8.

What is called Ki is a dissociation constant, usually derived from enzyme kinetics or from competition with a known ligand. What is called AC50 is the midpoint of the concentration-response curve, whichever way the signal moves. The IC50 is the midpoint of a concentration-inhibition curve.

T1 sequence (P0DPI1 2-448 limits assumed): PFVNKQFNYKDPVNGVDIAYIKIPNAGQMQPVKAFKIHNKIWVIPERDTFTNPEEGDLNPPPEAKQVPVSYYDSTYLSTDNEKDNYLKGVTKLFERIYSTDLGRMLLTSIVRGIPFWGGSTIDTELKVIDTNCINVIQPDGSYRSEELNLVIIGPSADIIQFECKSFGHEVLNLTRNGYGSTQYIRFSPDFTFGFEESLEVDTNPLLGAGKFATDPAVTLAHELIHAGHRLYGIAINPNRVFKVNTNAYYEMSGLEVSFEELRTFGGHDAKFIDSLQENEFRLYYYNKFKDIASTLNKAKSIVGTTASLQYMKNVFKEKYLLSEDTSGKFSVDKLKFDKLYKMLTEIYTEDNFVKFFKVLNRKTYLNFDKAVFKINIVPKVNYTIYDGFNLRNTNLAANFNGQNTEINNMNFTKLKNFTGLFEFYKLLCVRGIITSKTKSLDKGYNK
Chain of Cytochrome P450 3A4 (P08684 whole entry): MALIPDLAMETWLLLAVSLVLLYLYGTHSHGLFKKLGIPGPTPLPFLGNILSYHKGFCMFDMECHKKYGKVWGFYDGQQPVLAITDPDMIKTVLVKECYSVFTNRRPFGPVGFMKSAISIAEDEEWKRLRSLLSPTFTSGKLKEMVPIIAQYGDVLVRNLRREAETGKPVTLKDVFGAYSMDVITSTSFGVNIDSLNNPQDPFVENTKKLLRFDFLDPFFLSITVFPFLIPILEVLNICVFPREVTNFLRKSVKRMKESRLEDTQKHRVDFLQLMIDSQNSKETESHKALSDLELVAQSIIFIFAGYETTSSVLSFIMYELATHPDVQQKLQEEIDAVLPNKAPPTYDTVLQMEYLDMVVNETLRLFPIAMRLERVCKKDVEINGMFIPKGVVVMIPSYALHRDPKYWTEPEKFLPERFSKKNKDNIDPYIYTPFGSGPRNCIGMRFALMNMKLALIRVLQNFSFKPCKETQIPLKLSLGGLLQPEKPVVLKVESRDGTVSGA
Chain of Misshapen-like kinase 1 (Q8N4C8 whole entry): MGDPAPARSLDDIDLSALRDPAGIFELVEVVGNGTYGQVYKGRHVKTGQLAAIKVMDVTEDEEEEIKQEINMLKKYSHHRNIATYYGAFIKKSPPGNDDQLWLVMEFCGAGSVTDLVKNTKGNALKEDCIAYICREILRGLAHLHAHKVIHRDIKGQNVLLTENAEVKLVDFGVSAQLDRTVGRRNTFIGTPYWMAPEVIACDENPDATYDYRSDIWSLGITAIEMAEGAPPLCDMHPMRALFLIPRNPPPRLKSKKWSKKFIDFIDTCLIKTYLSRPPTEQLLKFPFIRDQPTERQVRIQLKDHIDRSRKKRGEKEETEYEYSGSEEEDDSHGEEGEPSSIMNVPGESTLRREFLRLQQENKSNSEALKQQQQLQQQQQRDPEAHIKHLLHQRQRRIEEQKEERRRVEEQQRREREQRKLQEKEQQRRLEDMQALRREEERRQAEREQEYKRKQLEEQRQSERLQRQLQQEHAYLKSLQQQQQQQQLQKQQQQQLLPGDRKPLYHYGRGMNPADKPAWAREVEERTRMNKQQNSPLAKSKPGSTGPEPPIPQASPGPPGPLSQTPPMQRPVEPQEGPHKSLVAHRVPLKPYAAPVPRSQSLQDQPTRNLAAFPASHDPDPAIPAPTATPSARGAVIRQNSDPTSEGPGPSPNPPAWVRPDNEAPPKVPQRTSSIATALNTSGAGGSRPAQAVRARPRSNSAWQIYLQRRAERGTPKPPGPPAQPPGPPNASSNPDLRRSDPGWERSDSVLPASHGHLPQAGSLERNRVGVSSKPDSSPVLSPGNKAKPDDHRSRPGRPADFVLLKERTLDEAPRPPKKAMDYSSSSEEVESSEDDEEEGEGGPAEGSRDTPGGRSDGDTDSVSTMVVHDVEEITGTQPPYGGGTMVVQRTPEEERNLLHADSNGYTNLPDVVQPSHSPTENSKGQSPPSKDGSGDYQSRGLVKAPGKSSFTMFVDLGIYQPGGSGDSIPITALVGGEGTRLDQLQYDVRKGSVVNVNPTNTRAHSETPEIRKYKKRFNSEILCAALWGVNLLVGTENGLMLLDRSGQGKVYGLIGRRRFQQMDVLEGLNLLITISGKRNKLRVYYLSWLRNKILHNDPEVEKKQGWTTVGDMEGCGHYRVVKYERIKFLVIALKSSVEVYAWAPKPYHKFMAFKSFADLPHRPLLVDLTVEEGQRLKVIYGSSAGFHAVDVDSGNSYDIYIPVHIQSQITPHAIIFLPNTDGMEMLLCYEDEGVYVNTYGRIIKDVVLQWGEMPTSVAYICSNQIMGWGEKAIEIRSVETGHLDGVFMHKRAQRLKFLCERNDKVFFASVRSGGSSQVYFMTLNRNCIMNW
Chain of Mitogen-activated protein kinase kinase kinase kinase 4 (O95819 whole entry): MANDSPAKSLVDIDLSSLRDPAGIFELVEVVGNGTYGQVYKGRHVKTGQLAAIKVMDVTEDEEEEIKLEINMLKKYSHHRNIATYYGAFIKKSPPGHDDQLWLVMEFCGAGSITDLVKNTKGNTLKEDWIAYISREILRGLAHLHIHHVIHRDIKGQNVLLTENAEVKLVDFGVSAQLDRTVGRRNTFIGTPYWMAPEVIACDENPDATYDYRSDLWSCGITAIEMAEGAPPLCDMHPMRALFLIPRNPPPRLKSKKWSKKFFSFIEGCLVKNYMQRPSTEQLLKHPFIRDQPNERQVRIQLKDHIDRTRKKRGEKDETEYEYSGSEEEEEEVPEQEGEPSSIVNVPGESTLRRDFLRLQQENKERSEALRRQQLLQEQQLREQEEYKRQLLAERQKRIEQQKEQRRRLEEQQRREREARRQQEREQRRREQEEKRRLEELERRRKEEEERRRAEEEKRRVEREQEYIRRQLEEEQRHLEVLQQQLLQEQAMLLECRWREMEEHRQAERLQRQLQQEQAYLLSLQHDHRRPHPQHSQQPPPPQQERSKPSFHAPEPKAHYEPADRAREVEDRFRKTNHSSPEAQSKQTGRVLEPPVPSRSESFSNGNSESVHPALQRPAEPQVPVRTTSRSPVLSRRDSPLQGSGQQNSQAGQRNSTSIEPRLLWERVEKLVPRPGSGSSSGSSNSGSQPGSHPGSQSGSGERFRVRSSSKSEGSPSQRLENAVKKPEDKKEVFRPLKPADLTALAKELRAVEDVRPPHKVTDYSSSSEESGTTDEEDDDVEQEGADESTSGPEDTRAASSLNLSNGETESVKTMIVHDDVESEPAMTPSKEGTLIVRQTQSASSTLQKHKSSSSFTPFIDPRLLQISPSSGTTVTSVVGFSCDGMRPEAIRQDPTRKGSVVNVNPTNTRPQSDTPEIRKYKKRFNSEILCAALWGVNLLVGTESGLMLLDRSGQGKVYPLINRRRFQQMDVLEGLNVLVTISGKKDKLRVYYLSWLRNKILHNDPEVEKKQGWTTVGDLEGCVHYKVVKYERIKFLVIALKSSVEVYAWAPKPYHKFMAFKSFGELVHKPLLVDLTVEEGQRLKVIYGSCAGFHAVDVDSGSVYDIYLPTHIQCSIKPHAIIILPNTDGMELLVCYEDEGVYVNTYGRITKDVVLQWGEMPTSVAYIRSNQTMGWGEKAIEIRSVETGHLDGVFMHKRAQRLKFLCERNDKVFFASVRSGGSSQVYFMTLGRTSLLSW
Chain of MAP kinase-activated protein kinase 2 (P49137 whole entry): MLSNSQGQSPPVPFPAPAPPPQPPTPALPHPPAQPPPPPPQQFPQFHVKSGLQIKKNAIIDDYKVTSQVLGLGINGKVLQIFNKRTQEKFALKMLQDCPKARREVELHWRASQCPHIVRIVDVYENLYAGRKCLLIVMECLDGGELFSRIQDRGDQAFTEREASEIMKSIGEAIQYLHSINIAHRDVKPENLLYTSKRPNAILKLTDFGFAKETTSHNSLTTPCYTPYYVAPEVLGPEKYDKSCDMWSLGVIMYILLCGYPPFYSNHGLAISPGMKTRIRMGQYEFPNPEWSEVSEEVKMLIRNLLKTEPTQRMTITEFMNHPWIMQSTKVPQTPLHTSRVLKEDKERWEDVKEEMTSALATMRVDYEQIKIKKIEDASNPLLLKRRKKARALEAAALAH
Chain of Lethal factor (P15917 whole entry): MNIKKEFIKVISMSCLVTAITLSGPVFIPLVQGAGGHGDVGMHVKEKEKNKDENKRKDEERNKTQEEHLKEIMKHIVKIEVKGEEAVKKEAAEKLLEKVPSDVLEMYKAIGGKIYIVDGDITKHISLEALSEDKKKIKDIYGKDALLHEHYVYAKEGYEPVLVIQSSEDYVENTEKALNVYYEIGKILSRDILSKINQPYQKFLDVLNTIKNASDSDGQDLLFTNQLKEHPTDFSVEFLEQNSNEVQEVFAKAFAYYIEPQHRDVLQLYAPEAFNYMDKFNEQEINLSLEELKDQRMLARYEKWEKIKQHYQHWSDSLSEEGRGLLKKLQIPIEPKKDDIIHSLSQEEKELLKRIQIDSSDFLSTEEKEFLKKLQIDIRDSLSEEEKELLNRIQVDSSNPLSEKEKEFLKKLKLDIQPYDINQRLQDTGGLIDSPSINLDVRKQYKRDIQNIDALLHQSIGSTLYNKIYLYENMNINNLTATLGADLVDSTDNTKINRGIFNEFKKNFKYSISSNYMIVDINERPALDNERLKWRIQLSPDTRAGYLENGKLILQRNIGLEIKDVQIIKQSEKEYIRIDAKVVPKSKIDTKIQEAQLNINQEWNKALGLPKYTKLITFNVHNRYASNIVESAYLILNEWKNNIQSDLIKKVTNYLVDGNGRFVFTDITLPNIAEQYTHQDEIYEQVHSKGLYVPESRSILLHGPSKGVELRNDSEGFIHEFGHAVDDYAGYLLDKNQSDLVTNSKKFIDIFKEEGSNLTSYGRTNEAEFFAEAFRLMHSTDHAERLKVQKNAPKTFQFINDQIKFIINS

For `Oc1ccc(Nc2nc(-c3ccc(Cl)cc3)cs2)cc1`, the Ki was 7.94 µM (active) in [1], 2.51 µM (active) at Misshapen-like kinase 1, 3.16 µM (active) in [2] and 1 µM (active) in test [3]. In addition, at Cytochrome P450 3A4, the half-maximal activity concentration (AC50) was 25.1 µM (inconclusive).
Regarding `O=C(Nc1ccc2nc(-c3cccs3)c(-c3cccs3)nc2c1)NC1CC1`, the EC50 in test [4] was 12.3 µM (active); in [5], 0.6 µM (active); at Lethal factor, 1.6 µM (active); in test [6], 1.5 µM (active).
With `C[n+]1c2cc(N)ccc2cc2ccc(N)cc21`, the figures for the IC50 (in [7]; in the test on HEK293; in [10]) were 97.5 µM (active), > 89.2 µM (inactive) and > 128 µM (inactive), respectively. For the same compound, the EC50 at Insulin-degrading enzyme [8] and at Insulin-degrading enzyme [9] was > 54.7 µM (inactive) each time. The AC50 was 7.94 µM (active) in the test on HeLa and 0.285 µM (active) at ORF 73.
